# Measurements from patent publication US20250304610A1, “TREHALOSE-BASED SURFACTANTS” (priority 2022, published 2025).
# How the values were obtained:
# [1] = system: antibody; assay: Antibody aggregation assessed by DLS after freeze-drying and storage; format: physicochemical; conditions: antibody 1 mg/mL, reconstituted with MilliQ water
# Experimental: 500 uL of 1 mg/mL antibody formulations were placed in a vial prior to deep-freeze in liquid nitrogen. The frozen samples were placed directly in the freeze-dryer. After 24 hr, the lyophilized samples were stored in a fridge at 4° C. for 7 or 28 days. The sample were then reconstituted with addition of MilliQ® water before assessing their stability by DLS and cell binding assays.
# The aggregation of antibody was assessed by dynamic light scattering (DLS) operating at 25° C. The measurements were done at different timepoints during storage at […] and right after nebulization.
# The mean hydrodynamic diameter by intensities of the monomer was distributed at d=10 nm while aggregates was distributed at a d >10 nm.
# The addition of 5.6 mM C16Tre1S and C8Tre1S trehalose surfactants as cryoprotectant was assessed on 1 mg/mL antibody formulations. The samples were first deep-frozen in liquid nitrogen before drying for 24 hr. The lyophilized samples were stored in a fridge for 0, 7 or 28 days before reconstitution with addition of MilliQ® water. The conformation and functionality of antibody after the process were assessed by DLS and cell binding assays respectively. The results were compared to antibody formulated in PBS only and formulated with standard cryoprotectants such as trehalose (5 wt % and 5.6 mM) and Tween 80 (5.6 mM).
# [2] = system: SARS-CoV-2 spike-expressing HEK293 cells; format: cell-based
Structure (SMILES),antibody aggregation after freeze-drying (DLS) ([1]; excipient 5.6 mM),antibody aggregation after freeze-drying (DLS) ([1]; excipient 5 wt %),antibody binding to spike-expressing HEK293 cells after lyophilization (fluorescence signal) [2],antibody binding to Spike protein after nebulization of the reconstituted formulation [2]
OC[C@H]1O[C@H](O[C@H]2O[C@H](CO)[C@@H](O)[C@H](O)[C@H]2O)[C@H](O)[C@@H](O)[C@@H]1O [Trehalose],aggregations were observed,Comparable results,significant decrease of antibody binding,–
CCCCCCCC/C=C\CCCCCCCC(=O)OCCOCC(OCCO)C1OCC(OCCO)C1OCCO (stereo not drawn) [Tween 80],Comparable results,–,Comparable results,at the same level as before nebulization
